Source: patent US12083172B2, “Vaccines against an oncogenic isoform of HER2 (ErbB2) and methods of using the same” (Duke University, priority 2014, dated 2024)
“Also recorded” adds a separate entry of the source. Where two headings read alike, the source gives them in different places.

Experiments:
[1] = system: MM3MG cells stably expressing HER2d16; settings: MM3MG-HER2d16 s.c. in SCID-Beige mice; for effect of lapatinib on growth of HER2d16 tumors: lapatinib oral gavage 75 mg/kg, 5 times a week, from day 8, FIG. 7, 75 mg/kg
Procedure: (§1) MM3MG cells stably expressing the indicated genes were implanted subcutaneously into SCID-Beige mice (100,000 per mouse in PBS) at days 0. Mice were treated weekly with T-DM1 via tail vein injection (200 μg/mouse) beginning at day 10. Tumor growth was measured by calipers at the indicated days (N=5, bars represent SE).
as §1, with “lapatinib by oral gavage (75 mg/kg/5 days week)” for “T-DM1 via tail vein injection (200 μg/mouse) beginning”, “8.” for “10.”
(§2) Experiments using BALB/c, and SCID-Beige mice (obtained from Jackson Labs) were done in accordance with Duke Institutional Animal Care and Use Committee-approved protocols. For tumor vaccine experiments, Human HER2-transgenic mice (kindly provided by Dr. Wei-Zen Wei, Wayne State University, Detroit, MI^4) were crossed with BALB/c mice (Jackson Labs) to permit implantation of MM3MG-HER2d16 tumors and genotyped by PCR as previously described^5. In immnodeficient animals, stable cells were injected s.c. into the flank of SCID-beige mice (at indicated cells/animal) and measured as indicated. Tumor measurements were made using calipers and volumes calculated using the formula [v=width×width×(length/2)] whereas statistical differences were calculated using a mixed effects regression model using autoregressive covariance. In treatment experiments, T-DM1 was weekly delivered via tail vein (200 μg/mouse) while Lapatinib was given by oral gavage (5 times a week, 75 mg/kg).

[2] = system: HER2-WT MM3MG; settings: MM3MG-HER2-WT s.c. in SCID-Beige mice; T-DM1 weekly via tail vein, 200 μg/mouse, from day 10; FIG. 6
Procedure: as §1, §2

Molecule: Trastuzumab-DM1 [T-DM1]
- effect of T-DM1 on growth of HER2d16 tumors ([1]; T-DM1 weekly via tail vein, 200 μg/mouse, from day 10, FIG. 6): more resistant; also recorded: only weakly impacted
- effect of T-DM1 on growth of HER2-WT MM3MG tumors [2]: significantly suppressed

Molecule: CS(=O)(=O)CCNCc1ccc(-c2ccc3ncnc(Nc4ccc(OCc5cccc(F)c5)c(Cl)c4)c3c2)o1 [Lapatinib]
- effect of lapatinib on growth of HER2d16 tumors [1]: only had a minor effect
- effect of lapatinib on growth of HER2d16 tumors ([1]; listed as lapatinib): resistant
